SMILES strings stand for the structures. Read-outs that look alike come from different tables or passages of the source. A value given as a limit tells only on which side of the number the result lay.

For the experiment, the target named is T1, Nanoluciferase-BRD9 fusion protein (3×FLAG-NLuc-BRD9) in SYO-1 cells (Homo sapiens, UniProt Q9H8M2).
T1 construct: expressed in transfected cells; host or cells: SYO-1
T1 sequence (Q9H8M2 1-597): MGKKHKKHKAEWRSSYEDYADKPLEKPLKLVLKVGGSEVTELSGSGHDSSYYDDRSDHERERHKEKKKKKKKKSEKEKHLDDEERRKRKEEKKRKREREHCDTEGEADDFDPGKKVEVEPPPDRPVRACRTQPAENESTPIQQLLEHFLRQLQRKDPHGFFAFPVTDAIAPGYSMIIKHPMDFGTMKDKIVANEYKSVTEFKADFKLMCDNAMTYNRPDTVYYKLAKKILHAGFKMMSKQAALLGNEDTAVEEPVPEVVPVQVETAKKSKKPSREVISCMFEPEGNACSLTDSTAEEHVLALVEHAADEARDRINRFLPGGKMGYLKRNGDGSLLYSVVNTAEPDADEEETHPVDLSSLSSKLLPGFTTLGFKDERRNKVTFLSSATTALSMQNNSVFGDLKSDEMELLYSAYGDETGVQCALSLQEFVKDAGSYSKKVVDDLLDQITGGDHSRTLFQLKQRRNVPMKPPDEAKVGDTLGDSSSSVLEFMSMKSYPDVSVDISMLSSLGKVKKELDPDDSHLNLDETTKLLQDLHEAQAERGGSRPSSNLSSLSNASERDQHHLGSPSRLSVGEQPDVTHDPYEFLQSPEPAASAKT
As to the kind of experiment: SYO1 BRD9 NanoLuc Degradation Assay. As to conditions: SYO-1 cells expressing 3×FLAG-NLuc-BRD9, 6 hours incubation, 1 μM top dose, read-out: SYO1 BRD9-NanoLuc degradation IC50. The format is cell-based. In short, it runs like this: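 NanoLuc signal, read by Nano-Glo luminescence after 6 h compound exposure, gives % inhibition against DMSO-treated cells (high control) and cells given 1 μM of a standard BRD9 degrader (low control). Test compounds ran as 10-point 3-fold series, top 1 μM final, in duplicate on SYO-1 cells stably expressing 3×FLAG-NLuc-BRD9.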

As for `[2H]C([2H])([2H])n1cc(-c2cc(OC)c(CN3CCC(CN4CCC5(CC4)CC(Oc4ccc6c(c4)C(=O)N(C4CCC(=O)NC4=O)C6=O)C5)CC3)c(OC)c2)c2cc(C3CC3)ncc2c1=O` (stereo not shown) [Compound D307], the DC50 (Table 6C) was below 10 nM. Consider `COc1cc(-c2cn(C)c(=O)c3cnc(C4CC4)cc23)cc(OC)c1CN1CC(C#Cc2ccc3c(c2)C(=O)N(C2CCC(=O)NC2=O)C3)C1` (stereo not shown) [Compound D263], for which, under “Table 6C”, the DC50 was below 10 nM. In the case of `COc1cc(-c2cn(C)c(=O)c3cnc(N4CCC4)nc23)cc(OC)c1CN1CCC(CN2CCC3(CC2)CC(Oc2ccc4c(c2)CN(C2CCC(=O)NC2=O)C4=O)C3)CC1` (stereo not shown) [Compound D182], the DC50 (Table 6B) is below 10 nM.

As for `COc1cc(-c2cn(C)c(=O)c3cnc(N(C)C)cc23)cc(OC)c1CN1CCC(CN2CCC3(CC2)CC(Oc2ccc4c(c2)C(=O)N(C2CCC(=O)NC2=O)C4=O)C3)CC1` (stereo not shown) [Compound D54], the DC50 (Table 6B) is below 10 nM.

For the compound `COc1cc(-c2cn(C)c(=O)c3cnc(N4CC[C@H]4C)cc23)cc(OC)c1CN1CC(CN2CCC3(CC2)CN(c2ccc4c(c2)C(=O)N(C2CCC(=O)NC2=O)C4)C3)C1` (stereo partly shown) [Compound D212], the DC50 (Table 6C) was below 10 nM. Consider `COc1cc(-c2cn(C)c(=O)c3cnc(N(C)C)cc23)cc(OC)c1CN1CC(CN2CCC3(CC2)CN(c2ccc4c(c2)CN(C2CCC(=O)NC2=O)C4=O)C3)C1` (stereo not shown) [Compound D143], for which the DC50 (Table 6B) was below 10 nM. `COc1cc(-c2cn(C)c(=O)c3cnc(C4CC4)cc23)cc(OC)c1CN1CC(CN2CCC3(CC2)CN(c2ccc4c(c2)C(=O)N(C2CCC(=O)NC2=O)C4)C3)C1` (stereo not shown) [Compound D193]: the DC50 (Table 6C) is below 10 nM. Turning to `COc1cc(-c2cn(C)c(=O)c3cnc(N(C)C)cc23)cc(OC)c1CN1CCN(C[C@H](C)Oc2ccc3c(c2)C(=O)N(C2CCC(=O)NC2=O)C3=O)CC1` (stereo partly shown) [Compound D83], the DC50 (Table 6B) is below 10 nM. Still for that read-out and setting: the value for `COc1cc(-c2cn(C)c(=O)c3cnc(N(C)C)cc23)cc(OC)c1CN1CCC(CCCN2Cc3cc4c(cc3C2)C(=O)N(C2CCC(=O)NC2=O)C4=O)CC1` (stereo not shown) [Compound D62] was below 10 nM; that for `C=CCn1cc(-c2cc(OC)c(CN3CCN(CCC4CCN(c5ccc6c(c5)C(=O)N(C5CCC(=O)NC5=O)C6=O)CC4)CC3)c(OC)c2)c2cc(N(C)C)ncc2c1=O` (stereo not shown) [Compound D134] was below 10 nM. For `COc1cc(-c2cn(C)c(=O)c3cnc(C(C)(C)C)cc23)cc(OC)c1CN1CCC(CN2CCC3(CC2)CC(Oc2ccc4c(c2)C(=O)N(C2CCC(=O)NC2=O)C4)C3)CC1` (stereo not shown) [Compound D214], the DC50 (Table 6C) is below 10 nM.

In the case of `COc1cc(-c2cn(C)c(=O)c3cnc(N(C)C)cc23)cc(OC)c1-c1ccc2c(c1)C(=O)N(C1CCC(=O)NC1=O)C2` (stereo not shown) [Compound D274], for the setting “Table 6C”, the DC50 is below 10 nM. The same measure, in the same setting: then `COc1cc(-c2cn(C)c(=O)c3cnc(C4CC4)cc23)cc(OC)c1CN1CC(Oc2ccc3c(c2)C(=O)N(C2CCC(=O)NC2=O)C3)C1` (stereo not shown) [Compound D300], with below 10 nM. `COc1cc(-c2cn(C)c(=O)c3cnc(N(C)C)cc23)cc(OC)c1CN1CC(CCN2CCN(c3ccc4c(c3)C(=O)N(C3CCC(=O)NC3=O)C4=O)CC2)C1` (stereo not shown) [Compound D43]: the DC50 (Table 6B) was at least 1000 nM.

With `CCN(CC)c1cc2c(-c3cc(OC)c(CN4CCN(CCC5CCN(c6ccc7c(c6)C(=O)N(C6CCC(=O)NC6=O)C7=O)CC5)CC4)c(OC)c3)cn(C)c(=O)c2cn1` (stereo not shown) [Compound D115], the DC50 (Table 6B) is below 10 nM. On the same count and under the same terms, the value for `CCN(C)c1cc2c(-c3cc(OC)c(CN4CCN(CCC5CCN(c6ccc7c(c6)C(=O)N(C6CCC(=O)NC6=O)C7=O)CC5)CC4)c(OC)c3)cn(C)c(=O)c2cn1` (stereo not shown) [Compound D124] was below 10 nM. For the compound `COc1cc(-c2cn(C)c(=O)c3cnc(N(C)C)cc23)cc(OC)c1CN1CCN(c2ccn3c(=O)n(C4CCC(=O)NC4=O)nc3c2)CC1` (stereo not shown) [Compound D154], the DC50 (Table 6B) is below 10 nM.

With `COc1cc(-c2cn(C)c(=O)c3cnc(N(C)C)cc23)cc(OC)c1CN1CCN(CCC2CCN(c3ccc4c(c3)C(=O)N(C3CCC(=O)NC3=O)C4)CC2)CC1` (stereo not shown) [Compound D120], where the note is “Table 6B”, the DC50 is below 10 nM. For `COc1cc(-c2cn(C)c(=O)c3cnc(N(C)C)cc23)cc(OC)c1CN1CC(c2ccc3c(c2)C(=O)N(C2CCC(=O)NC2=O)C3=O)C1` (stereo not shown) [Compound D132], the DC50 (Table 6B) was below 10 nM. Still for that read-out and setting: the value for `COc1cc(-c2cn(C)c(=O)c3cnc(N4CCC4)cc23)ccc1CN1CCC2(CC1)CN(c1ccc3c(c1)CN(C1CCC(=O)NC1=O)C3=O)C2` (stereo not shown) [Compound D148] was below 10 nM; that for `COc1cc(-c2cn(C)c(=O)c3cnc(N(C)C)cc23)cc(OC)c1CN(C)CC12CC(C(=O)NCCCCCOc3cccc4c3C(=O)N(C3CCC(=O)NC3=O)C4=O)(C1)C2` (stereo not shown) [Compound D36] was below 10 nM.

For `COc1cc(-c2cn(C)c(=O)c3cnc(N(C)C)cc23)cc(OC)c1CN1CC(CCCN2CCN(c3ccc4c(c3)C(=O)N(C3CCC(=O)NC3=O)C4=O)CC2)C1` (stereo not shown) [Compound D44], the DC50 (Table 6B) was in the range of 10 to 100 nM. As to `COc1cc(-c2cn(C)c(=O)c3cnc(N4CCC4)cc23)cc(OC)c1CN(C)c1ccc2c(c1)CN(C1CCC(=O)NC1=O)C2=O` (stereo not shown) [Compound D202], the DC50 (Table 6C) is below 10 nM. With `COc1cc(-c2cn(C)c(=O)c3cnc(N4CCOCC4)cc23)cc(OC)c1CN1CCC(CN2CCC3(CC2)CC(Oc2ccc4c(c2)C(=O)N(C2CCC(=O)NC2=O)C4)C3)CC1` (stereo not shown) [Compound D194], the DC50 (Table 6C) was below 10 nM. For `COc1cc(-c2cn(C)c(=O)c3cnc(N4CC(F)(F)C4)cc23)cc(OC)c1CN1CC(CN2CCC3(CC2)CN(c2ccc4c(c2)C(=O)N(C2CCC(=O)NC2=O)C4)C3)C1` (stereo not shown) [Compound D211], under “Table 6C”, the DC50 was below 10 nM.

Turning to `COc1cc(-c2cn(C)c(=O)c3cnc(N(C)C)cc23)cc(OC)c1CN1CCC(c2ccc3c(c2)C(=O)N(C2CCC(=O)NC2=O)C3=O)CC1` (stereo not shown) [Compound D104], the DC50 (Table 6B) is below 10 nM. For `COc1cc(-c2cn(C)c(=O)c3cnc(N(C)C)cc23)c2c(c1)N(CCCCCN1CCC3(CC1)CC(Oc1ccc4c(c1)C(=O)N(C1CCC(=O)NC1=O)C4=O)C3)CC2` (stereo not shown) [Compound D46], the DC50 (Table 6B) is below 10 nM. Take `COc1cc(-c2cn(C)c(=O)c3cnc(N4CC(C)(OC)C4)cc23)cc(OC)c1CN1CCC(CN2CCC3(CC2)CN(c2ccc4c(c2)C(=O)N(C2CCC(=O)NC2=O)C4)C3)CC1` (stereo not shown) [Compound D209]: the DC50 (Table 6C) was below 10 nM. For the compound `COc1cc(-c2cn(C)c(=O)c3cnc(N4CCC4)cc23)cc(OC)c1CN1CCC(c2ccc3c(c2)C(=O)N(C2CCC(=O)NC2=O)C3)CC1` (stereo not shown) [Compound D313], the DC50 (Table 6C) is below 10 nM.

As for `COc1cc(-c2cn(C)c(=O)c3cnc(N(C)C)cc23)cc(OC)c1CN1CCC(CN2CCC3(CC2)CC(Oc2ccc4c(c2)C(=O)N(C2CCC(=O)NC2=O)C4=O)C3)C(OC)C1` (stereo not shown) [Compound D130], the DC50 (Table 6B) is below 10 nM.

For `COc1cc(-c2cn(C)c(=O)c3cnc(N4CC(F)C4)cc23)cc(OC)c1CN1CCC(CN2CCC3(CC2)CN(c2ccc4c(c2)C(=O)N(C2CCC(=O)NC2=O)C4)C3)CC1` (stereo not shown) [Compound D206], for the setting “Table 6C”, the DC50 is below 10 nM.

`COc1cc(-c2cn(C)c(=O)c3cnc(N(C)C)cc23)cc(OC)c1CN1CC(Oc2ccc3c(c2)C(=O)N(C2CCC(=O)NC2=O)C3=O)C1` (stereo not shown) [Compound D98]: the DC50 (Table 6B) is below 10 nM. For `[2H]C([2H])([2H])n1cc(-c2cc(OC)c(CN3CCN(CCC4CCN(c5ccc6c(c5)CN(C5CCC(=O)NC5=O)C6=O)CC4)CC3)c(OC)c2)c2cc(N(C)C)ncc2c1=O` (stereo not shown) [Compound D223], the DC50 (Table 6C) was below 10 nM. On to `COc1cc(-c2cn(C)c(=O)c3cnc(N(C)C)cc23)cc(OC)c1CN1CCN(C[C@@H](C)Oc2ccc3c(c2)C(=O)N(C2CCC(=O)NC2=O)C3=O)CC1` (stereo partly shown) [Compound D82], for which the DC50 (Table 6B) is below 10 nM. Still for that read-out and setting: the value for `COc1cc(-c2cn(C)c(=O)c3cnc(N4CCOCC4)cc23)c(OC)cc1CN1CC(CN2CCC3(CC2)CN(c2ccc4c(c2)C(=O)N(C2CCC(=O)NC2=O)C4)C3)C1` (stereo not shown) [Compound D147] was below 10 nM; that for `COc1cc(-c2cn(C)c(=O)c3cnc(N(C)C)cc23)cc(OC)c1CN1CCC(CN2CCN(c3ccc4c(c3)C(=O)N(C3CCC(=O)NC3=O)C4=O)CC2)CC1` (stereo not shown) [Compound D57] was below 10 nM.

`COc1cc(-c2cn(C)c(=O)c3cnc(C4CC4)cc23)cc(OC)c1CN1CCC2(CC1)CN(c1ccc3c(c1)C(=O)N(C1CCC(=O)NC1=O)C3)C2` (stereo not shown) [Compound D226]: the DC50 (Table 6C) is below 10 nM.

As to `COc1cc2c(-c3cc(OC)c(CN4CCN(c5ccc6c(c5)C(=O)N(C5CCC(=O)NC5=O)C6)CC4(C)C)c(OC)c3)cn(C)c(=O)c2cn1` (stereo not shown) [Compound D260], the DC50 (Table 6C) is below 10 nM.

In the case of `COc1cc(-c2cn(C)c(=O)c3cnc(N(C)C)cc23)cc(OC)c1CN1CC2(CC(N3Cc4cc5c(cc4C3)C(=O)N(C3CCC(=O)NC3=O)C5=O)C2)C1` (stereo not shown) [Compound D63], the DC50 (Table 6B) was below 10 nM.

For `[2H]C([2H])([2H])n1cc(-c2cc(OC)c(CN3CCN(CCC4CCN(c5ccc6c(c5)C(=O)N(C5CCC(=O)NC5=O)C6)CC4)CC3)c(OC)c2)c2cc(N(C)C)ncc2c1=O` (stereo not shown) [Compound D240], under “Table 6C”, the DC50 was below 10 nM.
